Data as given in patent publication US20260234144A1 (TAY THERAPEUTICS LIMITED, priority 2023, published 2026).

System: R223X stop codon in the mutated luciferase gene, ADXC8 luciferase reporter cell line
Experiment: cells
Assay type: cell-based
Settings: ADXC8 cells, 24 hours; for Emax / EC (100% of 200 uM G418 response): 24 h; for Emax: read-out: Fold Over Control, maximum fold response relative to 200 μM G418; for EC (100% of 200 uM G418 response): read-out: pC100%, negative logarithm of the concentration giving the same response as 200 μM G418; for Fold Over Control: maximum fold response relative to 200 μM G418; for pC100%: negative logarithm of the concentration giving the same response as 200 μM G418

SMILES | Emax [%] | EC (100% of 200 uM G418 response) [µM] | Fold Over Control | pC100%
CNc1nc(N[C@@H]2CNC[C@H]2O)nc2nc3c(c(C)c12)CCC3 [Example 546] | 100 to 3000 | 1 to 10 | – | –
[2H]C([2H])([2H])Nc1nc(N[C@H]2CN(C)C[C@@H]2O)nc2nc3c(c(C)c12)CCC3 [Example 509, (3S,4S)-1-(methyl-d3)-4-((5-methyl-4-((methyl-da)amino)-7,8-dihydro-6H-cyclopenta[5,6]pyrido[2,3-d]pyrimidin-2-yl)amino)pyrrolidin-3-ol] | – | 0.01 to 0.1 | – | –
Cc1cc(C)c2c(N)nc(N[C@@H]3CCN(CCO)C3)nc2n1 [Example 224, (R)-2-(3-((4-amino-5,7-dimethylpyrido[2,3-d]pyrimidin-2-yl)amino)pyrrolidin-1-yl)ethan-1-ol] | 100 to 3000 | 10 to 100 | – | –
Cc1nc2nc(NC3CCNCC3)nc(N)c2c2c1CCC2 [Example 556] | 100 to 3000 | 0.1 to 1 | – | –
Cc1cc(C)c2c(N)nc(NC3CCCNCC3)nc2n1 (centres unmarked) [Example 140, A2-(azepan-4-yl)-5,7-dimethylpyrido[2,3-d]pyrimidine-2,4-diamine] | 100 to 3000 | 1 to 10 | – | –
Cc1cc(C)c2c(N)nc(NC3CCN(Cc4ccno4)CC3)nc2n1 [Example 501] | 100 to 3000 | 10 to 100 | – | –
Cc1cc(C)c2c(N)nc(NC3CCN(Cc4cccc(O)c4)CC3)nc2n1 [Example 506] | 100 to 3000 | 1 to 10 | – | –
CN1CCC(Nc2nc(N)c3ccc(-c4ccccc4C(F)(F)F)nc3n2)CC1 [Example 90] | 100 to 3000 | 10 to 100 | – | –
CNc1nc(N[C@H]2CNC[C@@H]2O)nc2nc3c(c(C)c12)CCC3 [Example 341] | 100 to 3000 | 0.01 to 0.1 | – | –
CNc1cc(N[C@H]2CN(C)C[C@H]2OC)nc2nc3c(c(C)c12)CCC3 [Example 424] | 100 to 3000 | 0.1 to 1 | – | –
Cc1cc(C)c2c(N)nc(NC3CCN(Cc4ccccc4F)CC3)nc2n1 [Example 465] | 100 to 3000 | 1 to 10 | – | –
CN1CCC(Nc2nc(N)c3ccc(-c4cccc(C(N)=O)c4)nc3n2)CC1 [Example 70] | 100 to 3000 | 10 to 100 | – | –
Cc1cc(C)c2c(N)nc(NC3CC4(CNC4)C3)nc2n1 [Example 202] | 100 to 3000 | 10 to 100 | – | –
Cc1cc(C)c2c(N)nc(N[C@H]3CCCNC3)nc2n1 [Example 352] | 100 to 3000 | 10 to 100 | – | –
Cc1nc2nc(NC34CCN(CC3)CC4)nc(N)c2c2c1CCC2 [Example 272] | 100 to 3000 | 0.1 to 1 | – | –
Cc1cc(C)c2c(N)nc(NC3C4CNC[C@@H]43)nc2n1 (some centres unmarked) [Example 203] | 100 to 3000 | 1 to 10 | – | –
CNc1nc(N[C@H]2CN(C)C[C@H]2F)nc2nc(C)c(Cl)c(C)c12 [Example 614] | – | 1 to 10 | – | –
Cc1nc2nc(N[C@@H]3CCNC3)nc(N)c2c2c1CCC2 [Example 295] | – | 0.1 to 1 | – | –
Cc1c2c(nc3nc(NC4CCN(Cc5cccc(B(O)O)c5)CC4)nc(N)c13)CCC2 [Example 669] | 100 to 3000 | 1 to 10 | – | –
CNc1nc(NC2C3CNC2C3)nc2nc(C)cc(C)c12 (single isomer, unassigned) [Example 445] | – | – | ## (Fold over Ctrl > 1 ≤ 30) | ++ (pC100% > 5.0 ≤ 6.0)

SMILES | Emax [%] | EC (100% of 200 uM G418 response) [µM] | Fold Over Control | pC100%
CNc1nc(N[C@H]2CN[C@H](CO)C2)nc2nc(C)cc(C)c12 [Example 415] | – | 1 to 10 | – | –
Cc1cc(C)c2c(NCc3ccccc3)nc(NC3CCN(C)CC3)nc2n1 [Example 268] | 100 to 3000 | 1 to 10 | – | –
CC(=O)Nc1ccc(-c2ccc3c(N)nc(NC4CCN(C)CC4)nc3n2)cc1 [Example 73] | 0 to 100 | > 100 | – | –
Cc1cc(C)c2c(N)nc(NC3CCN(CC4CCC4)CC3)nc2n1 [Example 454] | 100 to 3000 | 1 to 10 | – | –
C=C(C)c1ccc2c(N)nc(NC3CCN(C)CC3)nc2n1 [Example 238, N^2-(1-methylpiperidin-4-yl)-7-(prop-1-en-2-yl) pyrido[2,3-d]pyrimidine-2,4-diamine] | 0 to 100 | > 31.6 | – | –
CC#Cc1cnc2nc(NC3CCN(C)CC3)nc(N)c2c1 [Example 42, N^2-(1-methylpiperidin-4-yl)-6-(prop-1-yn-1-yl)pyrido[2,3-d]pyrimidine-2,4-diamine] | 0 to 100 | > 100 | – | –
Cc1c2c(nc3nc(N[C@H]4CNC[C@@H]4O)nc(N(C)C)c13)CCC2 [Example 553] | 100 to 3000 | 10 to 100 | – | –
Cc1ccc(CN2CCC(Nc3nc(N)c4c(C)cc(C)nc4n3)CC2)c(O)c1 [Example 540] | 100 to 3000 | 1 to 10 | – | –
COC(=O)c1cnc2nc(NC3CCN(C)CC3)nc(N)c2c1 [Example 122, methyl 4-amino-2-[(1-methylpiperidin-4-yl)amino]pyrido[2,3-d]pyrimidine-6-carboxylate] | 0 to 100 | > 100 | – | –
CNc1nc(N[C@@H]2CCN(C)C2)nc2nc(N(C)C)cc(C)c12 [Example 630] | 100 to 3000 | 10 to 100 | – | –
COCCN1CC[C@@H](Nc2nc(N)c3c(C)cc(C)nc3n2)C1 [Example 223, (R)—N^2-(1-(2-methoxyethyl)pyrrolidin-3-yl)-5,7-dimethylpyrido[2,3-d]pyrimidine-2,4-diamine] | 100 to 3000 | 10 to 100 | – | –
Cc1cc(C)c2c(N)nc(NCCCN(C)c3ccccc3)nc2n1 [Example 147] | 0 to 100 | > 31.6 | – | –
Cc1cc(C)c2c(N)nc(NC3CC4(CCNCC4)C3)nc2n1 [Example 200] | 0 to 100 | > 31.6 | – | –
CNc1cc(N[C@H]2CNC[C@@H]2O)nc2nc3c(c(C)c12)CCC3 [Example 635] | – | 1 to 10 | – | –
CN1CCC(Nc2nc(N)c3ccc(-c4ccc(N)cc4)nc3n2)CC1 [Example 68] | 100 to 3000 | 10 to 100 | – | –
Cc1nc2nc(NC3CCN(Cc4cc(F)ccc4O)CC3)nc(N)c2c2c1CCC2 [Example 535] | 100 to 3000 | 0.1 to 1 | – | –
Cc1c2c(nc3nc(NC4CCN(Cc5ccc(B(O)O)cc5)CC4)nc(N)c13)CCC2 [Example 668] | 100 to 3000 | 1 to 10 | – | –
CN1CCC(Nc2nc(N)c3ccc(-c4ccc(O)cc4)nc3n2)CC1 [Example 102] | 100 to 3000 | 10 to 100 | – | –
CNc1nc(N[C@@H]2C[C@@H](C)N(C)C2)nc2nc(C)cc(C)c12 [Example 375] | 100 to 3000 | 0.1 to 1 | – | –
Cc1cc(C)c2c(N)nc(NC3CCC(N(C)C)CC3)nc2n1 (centres unmarked) [Example 204] | 100 to 3000 | 1 to 10 | – | –

SMILES | Emax [%] | EC (100% of 200 uM G418 response) [µM] | Fold Over Control | pC100%
CNc1nc(NCCCN2CCOCC2)nc2nc3c(c(C)c12)CCC3 [Example 296] | – | 0.1 to 1 | – | –
CNC(=O)c1ccc(-c2ccc3c(N)nc(NC4CCN(C)CC4)nc3n2)cc1 [Example 77] | 0 to 100 | > 100 | – | –
CNc1nc(N[C@H]2CNC[C@@H]2O)nc2nc(C)c3c(c12)CCC3 [Example 344] | – | 0.01 to 0.1 | – | –
Cc1cc(C)c2c(N)nc(N[C@@H]3CCN(Cc4ccc(C#N)cc4)C[C@@H]3F)nc2n1 [Example 575] | 100 to 3000 | 10 to 100 | – | –
Cc1cc(C)c2c(N)nc(NC3CCN(Cc4ccccn4)CC3)nc2n1 [Example 471] | 100 to 3000 | 1 to 10 | – | –
Cc1cc(C)c2c(N)nc(NCCN3CCC4(CCOCC4)C3)nc2n1 [Example 165] | 0 to 100 | > 31.6 | – | –
CNc1nc(N[C@H]2CNC[C@@H]2OC)nc2nc3c(c(C)c12)CCC3 [Example 623] | – | 0.1 to 1 | – | –
Cc1c2c(nc3nc(NC4CCN(Cc5cccc(C(=O)O)c5)CC4)nc(N)c13)CCC2 [Example 674] | 0 to 100 | > 31.6 | – | –
CNc1nc(NC2C3CCC2CN(C(C)C)C3)nc2nc(C)cc(C)c12 (single isomer, unassigned) [Example 436] | – | – | ## (Fold over Ctrl > 1 ≤ 30) | + (pC100% > 4.0 ≤ 5.0)
Cc1cc(C)c2c(N)nc(NC3CCNC(C)C3)nc2n1 (centres unmarked) [Example 175] | 100 to 3000 | 1 to 10 | – | –
CNC(=O)c1ccccc1-c1ccc2c(N)nc(NC3CCN(C)CC3)nc2n1 [Example 107] | 0 to 100 | > 100 | – | –
CN1CCC(Nc2nc(N)c3c4c(cnc3n2)CCC4)CC1 [Example 274] | – | 1 to 10 | – | –
CNC(=O)CCNc1nc(NC2CCN(C)CC2)nc2nc(C)cc(C)c12 [Example 353] | 0 to 100 | > 31.6 | – | –
CN1CCC(Nc2nc(N)c3ccc(OC4CCC4)nc3n2)CC1 [Example 33, 7-cyclobutoxy-N^2-(1-methylpiperidin-4-yl)pyrido[2,3-d]pyrimidine-2,4-diamine] | 100 to 3000 | 10 to 100 | – | –
CN1CCC(Nc2nc(N)c3ccc(C(F)(F)F)nc3n2)CC1 [Example 18, N^2-(1-methylpiperidin-4-yl)-7-(trifluoromethyl)pyrido[2,3-d]pyrimidine-2,4-diamine] | 100 to 3000 | 10 to 100 | – | –
CNc1cc(N[C@@H]2CCN(C)C2)nc2nc(C)cc(C)c12 [Example 515, (R)—N^4,5,7-trimethyl-N^2-(1-methylpyrrolidin-3-yl)-1,8-naphthyridine-2,4-diamine] | 100 to 3000 | 1 to 10 | – | –
CC(CO)c1cnc2nc(NC3CCN(C)CC3)nc(N)c2c1 (centres unmarked) [Example 286] | 0 to 100 | > 100 | – | –
Cc1c2c(nc3nc(NC4CCN(Cc5cc(F)cc(F)c5O)CC4)nc(N)c13)CCC2 [Example 654] | 100 to 3000 | 1 to 10 | – | –
